Experimental data: patent publication EP0549857A1, “Antibacterial quinolone carboxylic acid derivatives” (KOREA RESEARCH INSTITUTE OF CHEMICAL TECHNOLOGY, priority 1991, dated 1993)
Values after ≈ are worked out from the molar mass of the structure shown. Like-named read-outs stand apart in the source and are kept apart here.

How the values were obtained:
[1] = system: Klebsiella aerogenes 1082E; experiment: In vitro anti-bacterial activity test (MIC, two-fold agar dilution); type: cell-based; settings: Mueller-Hinton agar, 10⁷ CFU/mℓ, 37°C, 18 hours
Salmonella typhimurium = experiment: as above; type: cell-based; settings: Mueller-Hinton agar, 10⁷ CFU/mℓ, 37°C, 18 hours
Escherichia coli 1507E = experiment: as above; type: cell-based; settings: Mueller-Hinton agar, 10⁷ CFU/mℓ, 37°C, 18 hours
Escherichia coli DC 2 = experiment: as above; type: cell-based; settings: 10⁷ CFU/mℓ, 37°C, 18 hours
Enterobacter cloacae P99 = experiment: as above; type: cell-based; settings: Mueller-Hinton agar, 10⁷ CFU/mℓ, 37°C, 18 hours
[2] = system: Staphylococcus aureus SG 511; experiment: as above; type: cell-based
[3] = system: Streptococcus pyogenes 308A; experiment: as above; type: cell-based; settings: Mueller-Hinton agar, 10⁷ CFU/mℓ, 37°C, 18 hours
Escherichia coli DC 0 = experiment: as above; type: cell-based; settings: 10⁷ CFU/mℓ, 37°C, 18 hours
Escherichia coli OTEM = experiment: as above; type: cell-based; settings: Mueller-Hinton agar, 10⁷ CFU/mℓ, 37°C, 18 hours
[4] = system: Pseudomonas aeruginosa 1771; experiment: as above; type: cell-based
Escherichia coli O 55 = experiment: as above; type: cell-based; settings: 10⁷ CFU/mℓ, 37°C, 18 hours
[5] = system: Pseudomonas aeruginosa 1592E; experiment: as above; type: cell-based; settings: Mueller-Hinton agar, 10⁷ CFU/mℓ, 37°C, 18 hours
[6] = system: Klebsiella aerogenes 1522E; experiment: as above; type: cell-based; settings: Mueller-Hinton agar, 10⁷ CFU/mℓ, 37°C, 18 hours
[7] = system: Streptococcus faecium MD 8b; experiment: as above; type: cell-based
[8] = system: Enterobacter cloacae 1321E; experiment: as above; type: cell-based; settings: Mueller-Hinton agar, 10⁷ CFU/mℓ, 37°C, 18 hours
[9] = system: Pseudomonas aeruginosa 9027; experiment: as above; type: cell-based
[10] = system: Staphylococcus aureus 503; experiment: as above; type: cell-based
[11] = system: Staphylococcus aureus 285; experiment: as above; type: cell-based
[12] = system: Streptococcus pyogenes 77A; experiment: as above; type: cell-based
[13] = system: Pseudomonas aeruginosa 1771M; experiment: as above; type: cell-based; settings: 18 h
P. mirabilis = experiment: Preventive effect on the systemic infection; type: in vivo; settings: Proteus mirabilis, in Mus musculus, P. mirabilis intraperitoneal infection, NMRI mice, survival on day 7, probit analysis, read-out: ED₅₀
Procedure: (§1) 10 fold of the pathogen which leads to 100% lethality were injected intraperitoneally to male and female NMRI mice weighing 18 to 20g. Immediately and after 4 hours, the dose of test compounds which was determined by two-fold serial dilution method was administered orally or subcutaneously; and on day 7, the effectiveness was evaluated in terms of ED₅₀ calculated from the number of survived mice by the probit analysis.

S. aureus 17740 = experiment: Preventive effect on the systemic infection; type: in vivo; settings: Staphylococcus aureus, 17740, in Mus musculus, S. aureus 17740 intraperitoneal infection, NMRI mice, survival on day 7, probit analysis, read-out: ED₅₀
Procedure: as §1

in vivo = settings: female, ICR, mouse
Procedure: Test compounds were administered to female ICR mice weighing 20 to 25g and on day 14, LD₅₀ was calculated from the number of survived mice by the probit analysis.

[14] = Salmonella enterica, read-out: MIC
[15] = DC2, Mueller-Hinton agar, read-out: MIC
[16] = DC0, Mueller-Hinton agar, read-out: MIC
[17] = O55, Mueller-Hinton agar, read-out: MIC
[18] = Oral Administration immediately and after 4 hours
[19] = Subcutaneous Injection immediately and after 4 hours

7-[6-amino-3-azabicyclo[3,3,0]oct-1(5) ene-3-yl]-5-amino-1-cyclopropyl-6,8-difluoro-1,4-dihydro-4-oxoquinoline-3-carboxylic acid [Example 10]
MIC [1]: 0.007 µg/mL
MIC (Salmonella typhimurium): 0.025 µg/mL
MIC (Escherichia coli 1507E): 0.049 µg/mL
MIC (Escherichia coli DC 2; Mueller-Hinton agar): 0.049 µg/mL
MIC (Enterobacter cloacae P99): 0.025 µg/mL
MIC ([2]; Staphylococcus aureus SG 511, Mueller-Hinton agar, 10⁷ CFU/mℓ, 37°C, 18 hours): 0.025 µg/mL
MIC [3]: 0.195 µg/mL
MIC (Escherichia coli DC 0; Mueller-Hinton agar): 0.781 µg/mL
MIC (Escherichia coli OTEM): 0.049 µg/mL
MIC ([4]; Pseudomonas aeruginosa 1771, Mueller-Hinton agar, 10⁷ CFU/mℓ, 37°C, 18 hours): 1.563 µg/mL
MIC (Escherichia coli O 55; Mueller-Hinton agar): 0.025 µg/mL
MIC [5]: 1.563 µg/mL
MIC [6]: 0.098 µg/mL
MIC ([7]; Streptococcus faecium MD 8b, Mueller-Hinton agar, 10⁷ CFU/mℓ, 37°C, 18 hours): 0.195 µg/mL
MIC [8]: 0.025 µg/mL
MIC ([9]; Pseudomonas aeruginosa 9027, Mueller-Hinton agar, 10⁷ CFU/mℓ, 37°C, 18 hours): 1.563 µg/mL
MIC ([10]; Staphylococcus aureus 503, Mueller-Hinton agar, 10⁷ CFU/mℓ, 37°C, 18 hours): 0.025 µg/mL
MIC ([11]; Staphylococcus aureus 285, Mueller-Hinton agar, 10⁷ CFU/mℓ, 37°C, 18 hours): 0.049 µg/mL
MIC ([12]; Streptococcus pyogenes 77A, Mueller-Hinton agar, 10⁷ CFU/mℓ, 37°C, 18 hours): 0.049 µg/mL

O=C(O)c1cn(C2CC2)c2cc(N3CCNCC3)c(F)cc2c1=O [Ciprofloxacin, reference compound]
MIC (Salmonella typhimurium; [14]): 0.049 µg/mL (≈ 0.148 µM)
MIC (Escherichia coli DC 2; [15]): 0.195 µg/mL (≈ 0.589 µM)
MIC ([2]; Staphylococcus aureus, SG511, 18 h): 0.781 µg/mL (≈ 2.36 µM)
MIC ([3]; read-out: MIC): 3.12 µg/mL (≈ 9.43 µM)
MIC (Escherichia coli DC 0; [16]): 0.391 µg/mL (≈ 1.18 µM)
MIC ([4]; Pseudomonas aeruginosa, 1771, 18 h): 0.781 µg/mL (≈ 2.36 µM)
MIC (Escherichia coli O 55; [17]): 0.007 µg/mL (≈ 0.0211 µM)
MIC [13]: 0.195 µg/mL (≈ 0.589 µM)
MIC ([5]; read-out: MIC): 0.391 µg/mL (≈ 1.18 µM)
MIC ([7]; Enterococcus faecium, MD8B, 18 h): 0.781 µg/mL (≈ 2.36 µM)
MIC ([9]; Pseudomonas aeruginosa, 9027, 18 h): 0.781 µg/mL (≈ 2.36 µM)
MIC ([10]; Staphylococcus aureus, 503, 18 h): 0.781 µg/mL (≈ 2.36 µM)
MIC ([11]; Staphylococcus aureus, 285, 18 h): 0.781 µg/mL (≈ 2.36 µM)
ED50 (P. mirabilis; [18]): 0.92 mg/kg
ED50 (P. mirabilis; [19]): 0.28 mg/kg
ED50 (S. aureus 17740; [18]): > 200 mg/kg
ED50 (S. aureus 17740; [19]): 132 mg/kg
MIC ([12]; Streptococcus pyogenes, 77A, 18 h): 0.781 µg/mL (≈ 2.36 µM)

CNC1CCC2=C1CN(c1c(F)cc3c(=O)c(C(=O)O)cn(C4CC4)c3c1Cl)C2 (centres unmarked) [Example 4, 7-[6-methylamino-3-azabicyclo[3,3,0]oct-1(5)ene-3-yl]-8-chloro-1-cyclopropyl-6-fluoro-1,4-dihydro-4-oxoquinoline-3-carboxylic acid]
MIC ([1]; read-out: MIC): < 0.002 µg/mL
MIC (Salmonella typhimurium; [14]): 0.049 µg/mL (≈ 0.117 µM)
MIC (Escherichia coli 1507E; read-out: MIC): 0.098 µg/mL (≈ 0.235 µM)
MIC (Escherichia coli DC 2; [15]): 0.025 µg/mL (≈ 0.0598 µM)
MIC (Enterobacter cloacae P99; read-out: MIC): 0.098 µg/mL (≈ 0.235 µM)
MIC ([2]; SG511, Staphylococcus aureus SG 511, Mueller-Hinton agar, 10⁷ CFU/mℓ, 37°C, 18 hours, read-out: MIC): 0.025 µg/mL (≈ 0.0598 µM)
MIC ([3]; read-out: MIC): 0.195 µg/mL (≈ 0.467 µM)
MIC (Escherichia coli DC 0; [16]): 0.781 µg/mL (≈ 1.87 µM)
MIC (Escherichia coli OTEM; read-out: MIC): 0.098 µg/mL (≈ 0.235 µM)
MIC ([4]; Pseudomonas aeruginosa 1771, Mueller-Hinton agar, 10⁷ CFU/mℓ, 37°C, 18 hours, read-out: MIC): 3.12 µg/mL (≈ 7.48 µM)
MIC (Escherichia coli O 55; [17]): 0.025 µg/mL (≈ 0.0598 µM)
MIC [13]: 0.781 µg/mL (≈ 1.87 µM)
MIC ([5]; read-out: MIC): 3.12 µg/mL (≈ 7.48 µM)
MIC ([6]; read-out: MIC): 0.195 µg/mL (≈ 0.467 µM)
MIC ([7]; Enterococcus faecium, MD8B, Streptococcus faecium MD 8b, Mueller-Hinton agar, 10⁷ CFU/mℓ, 37°C, 18 hours, read-out: MIC): 0.049 µg/mL (≈ 0.117 µM)
MIC ([8]; read-out: MIC): 0.098 µg/mL (≈ 0.235 µM)
MIC ([9]; Pseudomonas aeruginosa 9027, Mueller-Hinton agar, 10⁷ CFU/mℓ, 37°C, 18 hours, read-out: MIC): 3.12 µg/mL (≈ 7.48 µM)
MIC ([10]; Staphylococcus aureus 503, Mueller-Hinton agar, 10⁷ CFU/mℓ, 37°C, 18 hours, read-out: MIC): 0.025 µg/mL (≈ 0.0598 µM)
MIC ([11]; Staphylococcus aureus 285, Mueller-Hinton agar, 10⁷ CFU/mℓ, 37°C, 18 hours, read-out: MIC): 0.049 µg/mL (≈ 0.117 µM)
MIC ([12]; Streptococcus pyogenes 77A, Mueller-Hinton agar, 10⁷ CFU/mℓ, 37°C, 18 hours, read-out: MIC): 0.025 µg/mL (≈ 0.0598 µM)

COc1c(N2CC3=C(C2)C(N)CC3)c(F)cc2c(=O)c(C(=O)O)cn(C3CC3)c12 (centres unmarked) [Example 6, 7-[6-amino-3-azabicyclo[3,3,0]oct-1(5)ene-3-yl]-1-cyclopropyl-6-fluoro-8-methoxy-1,4-dihydro-4-oxoquinoline-3-carboxylic acid]
LD50 at 14 day (in vivo; ip): 755 mg/kg
LD50 at 14 day (in vivo; po): 4300 mg/kg
